Measured values as given in ChEMBL document CHEMBL1154822, “Synthesis and antiproliferative activity of 7-azaindirubin-3'-oxime, a 7-aza isostere of the natural indirubin pharmacophore” (J Nat Prod, 2009).

How the values were obtained:
[1] = target: Cyclin-dependent kinase 2/cyclin A (Homo sapiens) (UniProt P24941+P20248+P78396); test: Inhibition of human CDK2/Cyclin A assessed as residual enzyme activity at 0.3 uM after 40 mins by scintillation counting; assay type: protein-complex assay
IGROV-1 = test: Cytotoxicity against human IGROV1 cells assessed as cell growth at 10 uM after 48 hrs by MTT assay; assay type: functional; details: IGROV-1, 48 h, read-out: Activity
[2] = target: T1, Cyclin-dependent kinase 5/CDK5 activator 1 (Homo sapiens) (UniProt Q00535+Q15078); test: Inhibition of human CDK5/p35 assessed as residual enzyme activity at 0.3 uM after 40 mins by scintillation counting; assay type: protein-complex assay
786-0 = test: Cytotoxicity against human 786-0 cells assessed as cell growth at 10 uM after 48 hrs by MTT assay; assay type: functional; details: 786-0, 48 h, read-out: Activity
A498 = test: Cytotoxicity against human A498 cells assessed as cell growth at 10 uM after 48 hrs by MTT assay; assay type: functional; details: A498, 48 h, read-out: Activity
MOLT-4 [3] = test: Cytotoxicity against human MOLT4 cells assessed as cell growth at 10 uM after 48 hrs by MTT assay; assay type: functional; details: MOLT-4, 48 h, read-out: Activity
COLO 205 = test: Cytotoxicity against human COLO205 cells assessed as cell growth at 10 uM after 48 hrs by MTT assay; assay type: functional; details: COLO 205, 48 h, read-out: Activity
T47D = test: Cytotoxicity against human T47D cells assessed as cell growth at 10 uM after 48 hrs by MTT assay; assay type: functional; details: read-out: Activity
SF-268 = test: Cytotoxicity against human SF268 cells assessed as cell growth at 10 uM after 48 hrs by MTT assay; assay type: functional; details: SF-268, 48 h, read-out: Activity
A549 = test: Cytotoxicity against human A549 cells assessed as cell growth at 10 uM after 48 hrs by MTT assay; assay type: functional; details: A549, 48 h, read-out: Activity
[4] = target: Glycogen synthase kinase-3 beta (Homo sapiens) (UniProt P49841); test: Inhibition of human GSK3-beta assessed as residual enzyme activity at 0.01 uM after 40 mins by scintillation counting
Glycogen synthase kinase-3 beta (Homo sapiens), sequence (P49841 whole entry, looked up): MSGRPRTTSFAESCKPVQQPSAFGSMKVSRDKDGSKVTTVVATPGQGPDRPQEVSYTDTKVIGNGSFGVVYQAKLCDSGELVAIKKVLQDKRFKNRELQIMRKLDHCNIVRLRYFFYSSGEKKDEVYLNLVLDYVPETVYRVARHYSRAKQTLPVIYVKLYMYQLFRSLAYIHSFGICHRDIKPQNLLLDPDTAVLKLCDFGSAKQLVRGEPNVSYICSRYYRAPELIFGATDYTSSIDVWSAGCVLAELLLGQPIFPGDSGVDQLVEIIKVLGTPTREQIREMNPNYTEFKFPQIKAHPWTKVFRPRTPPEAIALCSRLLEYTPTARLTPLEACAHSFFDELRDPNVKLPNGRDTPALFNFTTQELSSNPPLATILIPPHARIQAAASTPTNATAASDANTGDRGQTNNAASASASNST

NCI/ADR-RES = test: Cytotoxicity against human NCI/ADR-RES cells assessed as cell growth at 10 uM after 48 hrs by MTT assay; assay type: functional; details: read-out: Activity
K562 = test: Cytotoxicity against human K562 cells assessed as cell growth at 10 uM after 48 hrs by MTT assay; assay type: functional; details: K562, 48 h, read-out: Activity
MDA-MB-468 = test: Cytotoxicity against human MDA-MB-468 cells assessed as cell growth at 10 uM after 48 hrs by MTT assay; assay type: functional; details: MDA-MB-468, 48 h, read-out: Activity
PC-3 = test: Cytotoxicity against human PC3 cells assessed as cell growth at 10 uM after 48 hrs by MTT assay; assay type: functional; details: PC-3, 48 h, read-out: Activity
NCI-H460 = test: Cytotoxicity against human NCI-H460 cells assessed as cell growth at 10 uM after 48 hrs by MTT assay; assay type: functional; details: NCI-H460, 48 h, read-out: Activity
MDA-MB-231 [5] = test: Cytotoxicity against human MDA-MB-231 cells assessed as cell growth at 10 uM after 48 hrs by MTT assay; assay type: functional; details: MDA-MB-231, 48 h, read-out: Activity
RXF 393 = test: Cytotoxicity against human […] cells assessed as cell growth at 10 uM after 48 hrs by MTT assay; assay type: functional; details: RXF 393, 48 h, read-out: Activity
M14 = test: Cytotoxicity against human M14 cells assessed as cell growth at 10 uM after 48 hrs by MTT assay; assay type: functional; details: M14, 48 h, read-out: Activity
SNB-19 [6] = test: Cytotoxicity against human SNB19 cells assessed as cell growth at 10 uM after 48 hrs by MTT assay; assay type: functional; details: SNB-19, 48 h, read-out: Activity
[7] = target: Cyclin-dependent kinase 1/cyclin B1 (Homo sapiens) (UniProt P06493+P14635); test: Inhibition of human CDK1/Cyclin B assessed as residual enzyme activity at 3 uM after 40 mins by scintillation counting; assay type: protein-complex assay
Cyclin-dependent kinase 1/cyclin B1 (Homo sapiens), sequence (P06493 whole entry, looked up): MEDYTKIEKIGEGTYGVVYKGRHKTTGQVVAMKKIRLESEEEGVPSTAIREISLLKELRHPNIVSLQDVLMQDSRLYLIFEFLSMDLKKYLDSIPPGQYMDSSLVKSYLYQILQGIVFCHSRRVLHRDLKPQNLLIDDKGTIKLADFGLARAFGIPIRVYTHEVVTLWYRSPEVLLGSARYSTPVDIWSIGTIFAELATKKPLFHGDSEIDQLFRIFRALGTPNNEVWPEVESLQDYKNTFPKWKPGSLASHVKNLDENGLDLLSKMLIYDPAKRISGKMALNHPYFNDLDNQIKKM
Cyclin-dependent kinase 1/cyclin B1 (Homo sapiens), sequence (P14635 whole entry, looked up): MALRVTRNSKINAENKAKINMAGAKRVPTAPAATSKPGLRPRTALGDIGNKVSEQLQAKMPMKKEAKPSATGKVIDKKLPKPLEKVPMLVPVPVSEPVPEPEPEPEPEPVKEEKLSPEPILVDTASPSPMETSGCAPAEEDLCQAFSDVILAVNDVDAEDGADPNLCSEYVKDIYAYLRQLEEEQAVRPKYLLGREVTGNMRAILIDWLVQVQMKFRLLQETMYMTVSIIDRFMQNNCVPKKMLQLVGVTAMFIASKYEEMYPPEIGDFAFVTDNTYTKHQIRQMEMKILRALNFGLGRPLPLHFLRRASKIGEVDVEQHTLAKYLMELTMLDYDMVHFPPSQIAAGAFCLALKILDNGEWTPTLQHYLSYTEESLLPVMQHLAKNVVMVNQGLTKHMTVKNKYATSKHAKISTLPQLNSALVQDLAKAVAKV

[8] = target: T1, Cyclin-dependent kinase 5/CDK5 activator 1 (Homo sapiens); test: Inhibition of human CDK5/p35 assessed as residual enzyme activity at 3 uM after 40 mins by scintillation counting; assay type: protein-complex assay
MCF7 = test: Cytotoxicity against human MCF7 cells assessed as cell growth at 10 uM after 48 hrs by MTT assay; assay type: functional; details: MCF7, 48 h, read-out: Activity
SF-539 = test: Cytotoxicity against human SF539 cells assessed as cell growth at 10 uM after 48 hrs by MTT assay; assay type: functional; details: SF-539, 48 h, read-out: Activity
KM12 = test: Cytotoxicity against human KM12 cells assessed as cell growth at 10 uM after 48 hrs by MTT assay; assay type: functional; details: KM12, 48 h, read-out: Activity
CCRF-CEM [9] = test: Cytotoxicity against human CCRF-CEM cells assessed as cell growth at 10 uM after 48 hrs by MTT assay; assay type: functional; details: read-out: Activity
UACC-257 = test: Cytotoxicity against human UACC257 cells assessed as cell growth at 10 uM after 48 hrs by MTT assay; assay type: functional; details: UACC-257, 48 h, read-out: Activity
ACHN = test: Cytotoxicity against human ACHN cells assessed as cell growth at 10 uM after 48 hrs by MTT assay; assay type: functional; details: read-out: Activity
CAKI-1 = test: Cytotoxicity against human Caki1 cells assessed as cell growth at 10 uM after 48 hrs by MTT assay; assay type: functional; details: CAKI-1, 48 h, read-out: Activity
NCI-H23 = test: Cytotoxicity against human NCI-H23 cells assessed as cell growth at 10 uM after 48 hrs by MTT assay; assay type: functional; details: NCI-H23, 48 h, read-out: Activity
MOLT-4 [10] = test: Cytotoxicity against human MOLT4 cells after 1 to 11 days by MTT assay; assay type: functional
NCI-H226 [11] = test: Cytotoxicity against human NCI-H226 cells assessed as cell growth at 0.1 uM after 1 to 11 days by MTT assay; assay type: functional; details: read-out: Activity
HT-29 = test: Cytotoxicity against human HT-29 cells after 1 to 11 days by MTT assay; assay type: functional
NCI-H226 [12] = test: Cytotoxicity against human NCI-H226 cells assessed as cell growth at 10 uM after 1 to 11 days by MTT assay; assay type: functional; details: read-out: Activity
MDA-MB-231 [13] = test: Cytotoxicity against human MDA-MB-231 cells assessed as cell growth at 1 uM after 1 to 11 days by MTT assay; assay type: functional; details: read-out: Activity
CCRF-CEM [14] = test: Cytotoxicity against human CCRF-CEM cells after 1 to 11 days by MTT assay; assay type: functional
OVCAR-8 = test: Cytotoxicity against human OVCAR8 cells assessed as cell growth at 0.1 uM after 1 to 11 days by MTT assay; assay type: functional; details: read-out: Activity
SNB-19 [15] = test: Cytotoxicity against human SNB19 cells assessed as cell growth at 10 uM after 1 to 11 days by MTT assay; assay type: functional; details: read-out: Activity
[16] = read-out: LC50 (the source's name)

With `O=C1Nc2ncccc2/C1=C1/Nc2ccccc2C1=O` the Activity [1] was 99%, the growth at 10 µM (IGROV-1) was -40.9% and the Activity [2] was 82%. The growth at 10 µM (786-0) was 84.1%, the growth at 10 µM (A498) was 117% and the growth at 10 µM (MOLT-4 [3]) was 85.3%. The growth at 10 µM (COLO 205) was 82.8%, the growth at 10 µM (T47D) was 48.4% and the growth at 10 µM (SF-268) was 84.4%. For the same molecule, the growth at 10 µM (A549) was 82.3%, the Activity [4] was 96% and the growth at 10 µM (NCI/ADR-RES) was 82.7%. For the same molecule, the growth at 10 µM (K562) was 85.5%, the growth at 10 µM (MDA-MB-468) was 42.8% and the growth at 10 µM (PC-3) was 73%. The growth at 10 µM (NCI-H460) was 47.7%, the growth at 10 µM (MDA-MB-231 [5]) was 78.3% and the growth at 10 µM (RXF 393) was 71.2%. The growth at 10 µM (M14) was 93.8%, the growth at 10 µM (SNB-19 [6]) was 96.4% and the Activity [7] was 65%. It also gave an Activity [8] of 39%, a growth at 10 µM (MCF7) of 41% and a growth at 10 µM (SF-539) of 90.9%. It also gave a growth at 10 µM (KM12) of 89.5%, a growth at 10 µM (CCRF-CEM [9]) of 88.4% and a growth at 10 µM (UACC-257) of 96.5%. It also gave a growth at 10 µM (ACHN) of 51.5%, a growth at 10 µM (CAKI-1) of 53.7% and a growth at 10 µM (NCI-H23) of 76%.

`CN1C(=O)/C(=C2/C(=O)N(C)c3ncccc32)c2cccnc21` showed an Activity [1] of 114%, a growth at 10 µM (IGROV-1) of 52.2% and an Activity [2] of 101%. It also gave a growth at 10 µM (786-0) of 94.5%, a growth at 10 µM (A498) of 120% and a growth at 10 µM (MOLT-4 [3]) of 127%. It also gave a growth at 10 µM (COLO 205) of 117%, a growth at 10 µM (T47D) of 109% and a growth at 10 µM (SF-268) of 103%. The growth at 10 µM (A549) was 101%, the Activity [4] was 94% and the growth at 10 µM (NCI/ADR-RES) was 85.5%. For the same molecule, the growth at 10 µM (K562) was 137%, the growth at 10 µM (MDA-MB-468) was 95.5% and the growth at 10 µM (PC-3) was 100%. It also gave a growth at 10 µM (NCI-H460) of 121%, a growth at 10 µM (MDA-MB-231 [5]) of 117% and a growth at 10 µM (RXF 393) of 101%. The growth at 10 µM (M14) was 92.7%, the growth at 10 µM (SNB-19 [6]) was 99.4% and the Activity [7] was 95%. The Activity [8] was 84%, the growth at 10 µM (MCF7) was 114% and the growth at 10 µM (SF-539) was 117%. For the same molecule, the growth at 10 µM (KM12) was 110%, the growth at 10 µM (CCRF-CEM [9]) was 89.4% and the growth at 10 µM (UACC-257) was 102%. The growth at 10 µM (ACHN) was 94.6%, the growth at 10 µM (CAKI-1) was 95.5% and the growth at 10 µM (NCI-H23) was 103%.

`O=C1Nc2ncccc2/C1=C1/Nc2ccccc2/C1=N\O` was tested, and the Activity [1] was 100%, the GI50 (MOLT-4 [10]) was 2.99 µM and the TGI (MOLT-4 [10]) was over 100 µM. The CC50 (MOLT-4 [10]; [16]) was over 100 µM, the growth at 10 µM (IGROV-1) was -25.3% and the Activity [2] was 65%. For the same molecule, the growth at 0.1 µM (NCI-H226 [11]) was 86%, the growth at 10 µM (786-0) was 43.4% and the growth at 10 µM (A498) was -11.7%. It also gave a growth at 10 µM (MOLT-4 [3]) of 40.8%, a growth at 10 µM (COLO 205) of 106% and a growth at 10 µM (T47D) of 49.1%. It also gave a growth at 10 µM (SF-268) of 86.2%, a GI50 (HT-29) of 88.8 µM and a TGI (HT-29) of over 100 µM. It also gave a CC50 (HT-29; [16]) of over 100 µM, a growth at 10 µM (NCI-H226 [12]) of 53% and a growth at 10 µM (A549) of 46.6%. It also gave an Activity [4] of 88%, a growth at 1 µM (MDA-MB-231 [13]) of 88% and a growth at 10 µM (NCI/ADR-RES) of 71.8%. For the same molecule, the growth at 10 µM (K562) was 53.2%, the growth at 10 µM (MDA-MB-468) was 28.4% and the GI50 (CCRF-CEM [14]) was 5.07 µM. It also gave a TGI (CCRF-CEM [14]) of over 100 µM, a CC50 (CCRF-CEM [14]; [16]) of over 100 µM and a growth at 10 µM (PC-3) of 67.7%. It also gave a growth at 0.1 µM (OVCAR-8) of 79%, a growth at 10 µM (SNB-19 [15]) of 94% and a growth at 10 µM (NCI-H460) of 52.2%. It also gave a growth at 10 µM (MDA-MB-231 [5]) of 78.6%, a growth at 10 µM (RXF 393) of 29.4% and a growth at 10 µM (M14) of 56.4%. It also gave a growth at 10 µM (SNB-19 [6]) of 96.5%, an Activity [7] of 69% and an Activity [8] of 19%. The growth at 10 µM (MCF7) was 87.8%, the growth at 10 µM (SF-539) was 50.3% and the growth at 10 µM (KM12) was 15%. For the same molecule, the growth at 10 µM (CCRF-CEM [9]) was 84.8%, the growth at 10 µM (UACC-257) was 92.6% and the growth at 10 µM (ACHN) was 22.6%. It also gave a growth at 10 µM (CAKI-1) of 12.4% and a growth at 10 µM (NCI-H23) of 89.7%.
